This note sets out measurements from patent US20240218022A1, “ANTI-VISTA MACROCYCLIC PEPTIDES AND COMPOSITIONS” (BRISTOL-MYERS SQUIBB COMPANY, priority 2022, published 2024).

In general, IC50 refers to the concentration that inhibits the measured activity by half.

Where two headings read alike, the source gives them in different places. Starred links: 1 amine or outer side, 2 acyl side, 3 side chain; linkers in the order of their positions; H or OH if unused. Positions of bridges follow the written chain, without caps; N, C: chain ends. Non-standard residues stand in square brackets, D forms with d. Residues, ends and D or L forms follow the SMILES beside them. γGlu = O=C(O)[C@H](CCC(=O)[*:2])N[*:1]; 2Nal = N[C@@H](Cc1ccc2ccccc2c1)C(=O)O; βAsp = O=C(O)[C@H](CC(=O)[*:2])N[*:1]; Tic = O=C(O)[C@@H]1Cc2ccccc2CN1; Cit = NC(=O)NCCC[C@H](N)C(=O)O; NMeL = CN[C@@H](CC(C)C)C(=O)O; Ahp(2) = CCCCC[C@H](N)C(=O)O; NMeNle = CCCC[C@H](NC)C(=O)O; Tle = CC(C)(C)[C@H](N)C(=O)O; NHexGly = CCCCCCNCC(=O)O; Nle = CCCC[C@H](N)C(=O)O; Orn = NCCC[C@H](N)C(=O)O; Aun = NCCCCCCCCCCC(=O)O; Dab = NCC[C@H](N)C(=O)O; AEEA = NCCOCCOCC(=O)O

This test deals with T1, mouse VISTA (mVISTA) (Mus musculus, UniProt Q9D659).
T1 construct: expressed in transfected cells; host or cells: Human embryonic kidney 293T cells
T1 sequence (Q9D659 33-308): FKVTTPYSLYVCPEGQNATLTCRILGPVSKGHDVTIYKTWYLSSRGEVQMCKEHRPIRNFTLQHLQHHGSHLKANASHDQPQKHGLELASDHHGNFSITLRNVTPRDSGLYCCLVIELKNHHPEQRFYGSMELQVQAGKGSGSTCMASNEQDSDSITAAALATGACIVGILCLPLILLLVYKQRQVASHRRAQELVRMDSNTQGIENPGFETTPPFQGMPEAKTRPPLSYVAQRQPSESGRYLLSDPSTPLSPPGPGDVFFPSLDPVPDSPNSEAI
As to the kind of experiment: Cell-Based Binding High-Content Assay For mVISTA (HC CBA mVISTA). In a few lines: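 Competition of compound with a biotinylated peptide (final 2 nM, 30 min at RT) for binding to mVISTA on 293T cells, run under no-wash or wash (1 h compound preincubation then removal) formats. Readout by Alexa 647–streptavidin imaging on a high-content platform; four-parameter logistic fit gave IC50.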

[1] abbreviates: cell-based binding high-content assay, read-out: HC CBA miPrISTA IC50.

Consider `CCCCCCN1CC(=O)N[C@@H](Cc2ccc(O)cc2)C(=O)N[C@@H](CC(C)C)C(=O)N[C@@H](CC(N)=O)C(=O)N[C@@H](CCCN)C(=O)N(C)[C@@H](CCCC)C(=O)N[C@@H](CCCCC)C(=O)N2CCC[C@H]2C(=O)N[C@@H](C(C)(C)C)C(=O)N[C@@H](CO)C(=O)N[C@H](C(=O)NCCOCCOCC(=O)N[C@@H](CCC(=O)NCCOCCOCC(=O)NCCCCCCCCCCC(=O)O)C(=O)O)CSCC(=O)N[C@@H](Cc2ccccc2)C(=O)N[C@@H](Cc2c[nH]c3ccccc23)C(=O)N[C@@H](CC(=O)O)C1=O` [compound 2280] ({CH2CO}-FWD[NHexGly]YLN[Orn][NMeNle][Ahp(2)]P[Tle]SC[AEEA][γGlu][AEEA][Aun]-OH; thioether N-14), for which, where the note is “read-out: HC CBA mVISTA IC50”, the IC50 was found to be 45.5 nM. Still for that read-out and setting: under `CCCCCCN1CC(=O)N[C@@H](Cc2ccc(O)cc2)C(=O)N[C@@H](CC(C)C)C(=O)N[C@@H](CC(N)=O)C(=O)N[C@@H](CCCNC(=N)N)C(=O)N(C)[C@@H](CCCC)C(=O)N[C@@H](CCCCC)C(=O)N2CCC[C@H]2C(=O)N[C@@H](C(C)(C)C)C(=O)N[C@@H](C(C)C)C(=O)N[C@H](C(=O)NCCOCCOCC(=O)N[C@@H](CCC(=O)NCCOCCOCC(=O)NCCCCCCCCCCC(=O)O)C(=O)O)CSCC(=O)N[C@@H](Cc2ccccc2)C(=O)N[C@@H](Cc2c[nH]c3ccccc23)C(=O)N[C@@H](CC(=O)O)C1=O` [compound 2281] ({CH2CO}-FWD[NHexGly]YLNR[NMeNle][Ahp(2)]P[Tle]VC[AEEA][γGlu][AEEA][Aun]-OH; thioether N-14) stands 31.3 nM; under `CCCCCCN1CC(=O)N[C@@H](Cc2ccc(O)cc2)C(=O)N[C@@H](CC(C)C)C(=O)N[C@@H](CC(N)=O)C(=O)N[C@@H](CCCN)C(=O)N(C)[C@@H](CCCC)C(=O)N[C@@H](CCCCC)C(=O)N2CCC[C@H]2C(=O)N[C@@H](C(C)(C)C)C(=O)N[C@@H](C(C)C)C(=O)N[C@H](C(=O)NCCOCCOCC(=O)N[C@@H](CCC(=O)NCCOCCOCC(=O)NCCCCCCCCCCC(=O)O)C(=O)O)CSCC(=O)N[C@@H](Cc2ccccc2)C(=O)N[C@@H](Cc2c[nH]c3ccccc23)C(=O)N[C@@H](CC(=O)O)C1=O` [compound 2282] ({CH2CO}-FWD[NHexGly]YLN[Orn][NMeNle][Ahp(2)]P[Tle]VC[AEEA][γGlu][AEEA][Aun]-OH; thioether N-14), 34.9 nM; under `CCCCCCN1CC(=O)N[C@@H](Cc2ccc(O)cc2)C(=O)N[C@@H](CC(C)C)C(=O)N[C@@H](CC(N)=O)C(=O)N[C@@H](CCCN)C(=O)N(C)[C@@H](CCCC)C(=O)N[C@@H](CCCCC)C(=O)N2CCC[C@H]2C(=O)N[C@@H](C(C)(C)C)C(=O)N[C@@H](CC(=O)O)C(=O)N[C@H](C(=O)NCCOCCOCC(=O)N[C@@H](CCC(=O)NCCOCCOCC(=O)NCCCCCCCCCCC(=O)O)C(=O)O)CSCC(=O)N[C@@H](Cc2ccccc2)C(=O)N[C@@H](Cc2c[nH]c3ccccc23)C(=O)N[C@@H](CC(=O)O)C1=O` [compound 2283] ({CH2CO}-FWD[NHexGly]YLN[Orn][NMeNle][Ahp(2)]P[Tle]DC[AEEA][γGlu][AEEA][Aun]-OH; thioether N-14), 27.8 nM. With `CCCCCCN1CC(=O)N[C@@H](Cc2ccc(O)cc2)C(=O)N[C@@H](CC(C)C)C(=O)N[C@@H](CC(N)=O)C(=O)N[C@@H](CCCNC(=N)N)C(=O)N[C@@H](CC(C)C)C(=O)N[C@@H](CCCCC)C(=O)N2CCC[C@H]2C(=O)N[C@@H](C(C)C)C(=O)N[C@@H](CO)C(=O)N[C@H](C(=O)NCCOCCOCC(=O)N[C@@H](CC(=O)O)C(=O)NCCOCCOCC(=O)NCCCCCCCCCCC(=O)O)CSCC(=O)N[C@@H](Cc2ccccc2)C(=O)N[C@@H](Cc2ccc(O)cc2)C(=O)N[C@@H](CC(=O)O)C1=O` [compound 2285] ({CH2CO}-FYD[NHexGly]YLNRL[Ahp(2)]PVSC[AEEA]D[AEEA][Aun]-OH; thioether N-14), the IC50 under setting [1] turned out to be 15.2 nM. Same read-out and setting: for `CCCCCCN1CC(=O)N[C@@H](Cc2ccc(O)cc2)C(=O)N[C@@H](CCCCC)C(=O)NCC(=O)N[C@@H](CCCNC(=N)N)C(=O)N[C@@H](CC(C)C)C(=O)N[C@@H](CCCCC)C(=O)N2CCC[C@H]2C(=O)N[C@@H](C(C)C)C(=O)N[C@@H](CO)C(=O)N[C@H](C(=O)NCCOCCOCC(=O)N[C@@H](CC(=O)O)C(=O)NCCOCCOCC(=O)NCCCCCCCCCCC(=O)O)CSCC(=O)N[C@@H](Cc2ccccc2)C(=O)N[C@@H](Cc2ccc(O)cc2)C(=O)N[C@@H](CC(=O)O)C1=O` [compound 2292] ({CH2CO}-FYD[NHexGly]Y[Ahp(2)]GRL[Ahp(2)]PVSC[AEEA]D[AEEA][Aun]-OH; thioether N-14) the value was 18.2 nM. On the same count and under the same terms, for `CCCCCCN1CC(=O)N[C@@H](Cc2ccc(O)cc2)C(=O)N[C@@H](CCCC)C(=O)N[C@@H](CC(N)=O)C(=O)N[C@@H](CCCNC(=N)N)C(=O)N(C)[C@@H](CCCC)C(=O)N[C@@H](CCCCC)C(=O)N2CCC[C@H]2C(=O)N[C@@H](C(C)C)C(=O)N[C@@H](CC(=O)O)C(=O)N[C@H](C(=O)NCCOCCOCC(=O)N[C@@H](CC(=O)O)C(=O)NCCOCCOCC(=O)NCCCCCCCCCCC(=O)O)CSCC(=O)N[C@@H](Cc2ccccc2)C(=O)N[C@@H](Cc2c[nH]c3ccccc23)C(=O)N[C@@H](CC(=O)O)C1=O` [compound 2293] ({CH2CO}-FWD[NHexGly]Y[Nle]NR[NMeNle][Ahp(2)]PVDC[AEEA]D[AEEA][Aun]-OH; thioether N-14) the value was 25.7 nM; for `CCCCCCN1CC(=O)N[C@@H](Cc2ccc(O)cc2)C(=O)N[C@@H](CCCCC)C(=O)NCC(=O)N[C@@H](CCCNC(N)=O)C(=O)N[C@@H](CC(C)C)C(=O)N[C@@H](CCCCC)C(=O)N2CCC[C@H]2C(=O)N[C@@H](C(C)C)C(=O)N[C@@H](CO)C(=O)N[C@H](C(=O)NCCOCCOCC(=O)N[C@@H](CC(=O)O)C(=O)NCCOCCOCC(=O)NCCCCCCCCCCC(=O)O)CSCC(=O)N[C@@H](Cc2ccccc2)C(=O)N[C@@H](Cc2ccc(O)cc2)C(=O)N[C@@H](CC(=O)O)C1=O` [compound 2307] ({CH2CO}-FYD[NHexGly]Y[Ahp(2)]G[Cit]L[Ahp(2)]PVSC[AEEA]D[AEEA][Aun]-OH; thioether N-14), 21.2 nM; for `CCCCCCN1CC(=O)N[C@@H](Cc2ccc(O)cc2)C(=O)N[C@@H](C(C)C)C(=O)NCC(=O)N[C@@H](CCCNC(N)=O)C(=O)N[C@@H](CC(C)C)C(=O)N[C@@H](CCCCC)C(=O)N2CCC[C@H]2C(=O)N[C@@H](C(C)C)C(=O)N[C@@H](CC(=O)O)C(=O)N[C@H](C(=O)NCCOCCOCC(=O)N[C@@H](CC(=O)O)C(=O)NCCOCCOCC(=O)NCCCCCCCCCCC(=O)O)CSCC(=O)N[C@@H](Cc2ccc3ccccc3c2)C(=O)N[C@@H](Cc2ccc(O)cc2)C(=O)N[C@@H](CC(=O)O)C1=O` [compound 2308] ({CH2CO}-[2Nal]YD[NHexGly]YVG[Cit]L[Ahp(2)]PVDC[AEEA]D[AEEA][Aun]-OH; thioether N-14), 14.6 nM. The same measure, in the same setting: under `CCCCCCN1CC(=O)N[C@@H](Cc2ccc(O)cc2)C(=O)N[C@@H](CCCC)C(=O)N[C@@H](CC(N)=O)C(=O)N[C@@H](CCCNC(=N)N)C(=O)N(C)[C@@H](CC(C)C)C(=O)N[C@@H](CCCCC)C(=O)N2CCC[C@H]2C(=O)N[C@@H](C(C)C)C(=O)N[C@@H](CO)C(=O)N[C@H](C(=O)NCCOCCOCC(=O)N[C@@H](CC(=O)O)C(=O)NCCOCCOCC(=O)NCCCCCCCCCCC(=O)O)CSCC(=O)N[C@@H](Cc2ccc3ccccc3c2)C(=O)N[C@@H](Cc2ccc(O)cc2)C(=O)N[C@@H](CC(=O)O)C1=O` [compound 2313] ({CH2CO}-[2Nal]YD[NHexGly]Y[Nle]NR[NMeL][Ahp(2)]PVSC[AEEA]D[AEEA][Aun]-OH; thioether N-14) stands 28.1 nM; under `CCCCCCN1CC(=O)N[C@@H](Cc2ccc(O)cc2)C(=O)N[C@@H](CCCC)C(=O)N[C@@H](CC(N)=O)C(=O)N[C@@H](CCCNC(N)=O)C(=O)N2Cc3ccccc3C[C@H]2C(=O)N[C@@H](CCCCC)C(=O)N2CCC[C@H]2C(=O)N[C@@H](C(C)C)C(=O)N[C@@H](CO)C(=O)N[C@H](C(=O)NCCOCCOCC(=O)N[C@@H](CC(=O)O)C(=O)NCCOCCOCC(=O)NCCCCCCCCCCC(=O)O)CSCC(=O)N[C@@H](Cc2ccc3ccccc3c2)C(=O)N[C@@H](Cc2ccc(O)cc2)C(=O)N[C@@H](CC(=O)O)C1=O` [compound 2315] ({CH2CO}-[2Nal]YD[NHexGly]Y[Nle]N[Cit][Tic][Ahp(2)]PVSC[AEEA]D[AEEA][Aun]-OH; thioether N-14), 18.3 nM; under `CCCCCCN1CC(=O)N[C@@H](Cc2ccc(O)cc2)C(=O)N[C@@H](CCCC)C(=O)N[C@@H](CC(N)=O)C(=O)N[C@@H](CCCNC(N)=O)C(=O)N(C)[C@@H](CCCC)C(=O)N[C@@H](CCCCC)C(=O)N2CCC[C@H]2C(=O)N[C@@H](C(C)C)C(=O)N[C@@H](CO)C(=O)N[C@H](C(=O)NCCOCCOCC(=O)N[C@@H](CC(=O)O)C(=O)NCCOCCOCC(=O)NCCCCCCCCCCC(=O)O)CSCC(=O)N[C@@H](Cc2ccc3ccccc3c2)C(=O)N[C@@H](Cc2ccc(O)cc2)C(=O)N[C@@H](CC(=O)O)C1=O` [compound 2319] ({CH2CO}-[2Nal]YD[NHexGly]Y[Nle]N[Cit][NMeNle][Ahp(2)]PVSC[AEEA]D[AEEA][Aun]-OH; thioether N-14), 25.1 nM. For `CCCCCCN1CC(=O)N[C@@H](Cc2ccc(O)cc2)C(=O)N[C@@H](CC(C)C)C(=O)N[C@@H](CC(N)=O)C(=O)N[C@@H](CCCNC(=N)N)C(=O)N(C)[C@@H](CCCC)C(=O)N[C@@H](CCCCC)C(=O)N2CCC[C@H]2C(=O)N[C@@H](C(C)(C)C)C(=O)N[C@@H](CC(=O)O)C(=O)N[C@H](C(=O)N[C@@H](CC(=O)NCCOCCOCC(=O)N[C@@H](CCN)C(=O)NCCOCCOCC(=O)NCCCCCCCCCCC(=O)O)C(=O)O)CSCC(=O)N[C@@H](Cc2ccccc2)C(=O)N[C@@H](Cc2ccc(O)cc2)C(=O)N[C@@H](CC(=O)O)C1=O` [compound 2329] ({CH2CO}-FYD[NHexGly]YLNR[NMeNle][Ahp(2)]P[Tle]DC[βAsp][AEEA][Dab][AEEA][Aun]-OH; thioether N-14), for the setting “cell-based binding high-content assay, read-out: HC CBA mVISTA IC50”, the IC50 amounted to 22.4 nM.
